Patent publication US11559538B2, “Substituted 1,2-oxaborolan-2-ols as PDE4 inhibitors” (Pfizer Inc., priority 2018, dated 2023)
Where two headings read alike, the source gives them in different places.

Experiments:
IL-4 = assay: Cytokine assay: IL-4 release from PHA-L stimulated human PBMCs; format: cell-based; conditions: read-out: IL4 IC50
Method in brief: (§1)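 Cytokines IL-4, IL-13 and IFNγ quantified by HTRF after 48 h, 37 °C culture of human PBMCs activated with PHA-L at 3.5 μg/mL final. Test compound, 4-fold dilutions from approximately 10 μM in 0.25% DMSO, was added briefly before stimulation; IC50 derived by four-parameter logistic regression.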

IFNγ = assay: Cytokine assay: IFNγ release from PHA-L stimulated human PBMCs; format: cell-based
Method in brief: as §1

IL-13 = assay: Cytokine assay: IL-13 release from PHA-L stimulated human PBMCs; format: cell-based; conditions: read-out: IL13 IC50
Method in brief: as §1

[1] = molecular target: PDE4B (aa 152-484, Uniprot ID Q07343) (Homo sapiens (Human), UniProt Q07343); assay: PDE4 SPA assay (scintillation proximity assay); format: biochemical; conditions: read-out: PDE4B2 IC50
Method in brief: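 Scintillation proximity read-out after a 30 min room-temperature reaction of ~81.6 pM PDE4B catalytic fragment (aa 152-484) with 1 μM tritiated/unlabeled cAMP, pH 7.5 Tris buffer with MgCl2 and Brij 35. Compound given ~10 min beforehand, 4-fold dilutions, ~2% DMSO; IC50 from four-parameter logistic curve.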

PDE4B (aa 152-484, Uniprot ID Q07343), sequence (Q07343 324-656): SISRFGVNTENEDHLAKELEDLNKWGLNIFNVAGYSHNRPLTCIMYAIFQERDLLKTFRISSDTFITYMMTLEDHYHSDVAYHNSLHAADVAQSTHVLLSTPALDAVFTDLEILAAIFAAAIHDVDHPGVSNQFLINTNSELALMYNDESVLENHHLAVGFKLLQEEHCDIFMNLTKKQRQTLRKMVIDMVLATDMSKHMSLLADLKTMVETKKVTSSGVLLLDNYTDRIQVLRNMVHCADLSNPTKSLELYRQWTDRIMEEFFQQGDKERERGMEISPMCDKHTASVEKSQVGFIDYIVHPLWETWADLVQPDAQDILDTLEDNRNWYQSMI

| Compound | IC50 (IL-4; Homo sapiens, PBMC) [nM] | IC50 (IFNγ; Homo sapiens, PBMC) [nM] | IC50 (IL-13; Homo sapiens, PBMC) [nM] | IC50 [1] [nM] | IC50 (IL-4) [nM] | IC50 (IFNγ) [nM] | IC50 (IL-13) [nM] |
| --- | --- | --- | --- | --- | --- | --- | --- |
| COc1cnc(-c2cccc(C3COB(O)C3)c2)nc1OC (single isomer, unassigned) [Example 123, 4-(3-(4,5-dimethoxypyrimidin-2-yl)phenyl)-1,2-oxaborolan-2-ol] | 34.1 | 3.58 | 1640 | 3.11 |  |  |  |
| CCOc1cc(-c2cncc([C@@H]3COB(O)C3)c2)ccc1OC [Example 3, (R)-4-(5-(3-ethoxy-4-methoxyphenyl)pyridin-3-yl)-1,2-oxaborolan-2-ol] | 3.54 | 0.7 | 165 | 1.14 |  |  |  |
| CCCOc1cc(-c2nc(C3COB(O)C3)ccc2F)ccc1OC (stereo not drawn) [Example 135, 4-(5-fluoro-6-(4-methoxy-3-propoxyphenyl)pyridin-2-yl)-1,2-oxaborolan-2-ol] | 15.3 | 7.24 | 668 | 10.3 |  |  |  |
| CCCOc1c(OC)ccc(-c2cncc(C3COB(O)C3)n2)c1F (single isomer, unassigned; enantiomer 1) [Example 216, 4-(6-(2-fluoro-4-methoxy-3-propoxyphenyl)pyrazin-2-yl)-1,2-oxaborolan-2-ol, enantiomer 1] | 19.6 | 1.94 | 2860 | 4.05 |  |  |  |
| COc1cc(-c2cccc(C3COB(O)C3)c2)ccc1SC (stereo not drawn) [Example 206, 4-(3′-methoxy-4′-(methylthio)-[1,1′-biphenyl]-3-yl)-1,2-oxaborolan-2-ol] | 113 | 27.8 | 1790 | 2.65 |  |  |  |
| CCCOc1cc(-c2cncc(C3COB(O)C3)c2)ccc1OCC (single isomer, unassigned) [Example 106, 4-(5-(4-ethoxy-3-propoxyphenyl)pyridin-3-yl)-1,2-oxaborolan-2-ol] |  |  |  | 1.83 | 16.1 | 3.42 | 2080 |
| CCOc1cc(-c2cncc(C3COB(O)C3)c2)ccc1OC (stereo not drawn) [Example 33, 4-(5-(3-ethoxy-4-methoxyphenyl)pyridin-3-yl)-1,2-oxaborolan-2-ol] | 39.8 | 1.44 | 181 | 1.25 |  |  |  |
| CCCOc1cc(-c2nc(CO)cc(C3COB(O)C3)n2)ccc1OC (stereo not drawn) [Example 76, 4-(6-(hydroxymethyl)-2-(4-methoxy-3-propoxyphenyl)pyrimidin-4-yl)-1,2-oxaborolan-2-ol] |  |  |  | 10 | 5.75 | 2.17 | 403 |
| COc1cc(-c2cncc(C3COB(O)C3)c2)ccc1SC (stereo not drawn) [Example 201, 4-(5-(3-methoxy-4-(methylthio)phenyl)pyridin-3-yl)-1,2-oxaborolan-2-ol] | 105 | 9.51 | 1660 | 2.13 |  |  |  |
| COc1ccc(-c2cc(C3COB(O)C3)ccn2)cc1OC1CCCC1 (stereo not drawn) [Example 210, 4-(2-(3-(cyclopentyloxy)-4-methoxyphenyl)pyridin-4-yl)-1,2-oxaborolan-2-ol] | 17.6 | 2.4 | 2390 | 1.92 |  |  |  |
| CCCOc1cc(-c2cccc(C3CCOB(O)C3)n2)ccc1OC (stereo not drawn) [Example 26, 4-(6-(4-methoxy-3-propoxyphenyl)pyridin-2-yl)-1,2-oxaborinan-2-ol] | 1670 | 3300 | 10000 | 399 |  |  |  |
| CCOc1ccc(-c2cccc(C3COB(O)C3)c2)cc1OC (stereo not drawn) [Example 182, 4-(4′-ethoxy-3′-methoxy-[1,1′-biphenyl]-3-yl)-1,2-oxaborolan-2-ol] | 245 | 19.6 | 1330 | 5.14 |  |  |  |
| CCOc1nc(-c2cccc(C3=CB(O)OC3)c2)ccc1OC [Example 120, 4-(3-(6-ethoxy-5-methoxypyridin-2-yl)phenyl)-1,2-oxaborol-2(5H)-ol] | 171 | 7.85 | 2090 | 1.11 |  |  |  |
| CCCOc1cc(-c2nc(OCCO)cc(C3COB(O)C3)n2)ccc1OC (single isomer, unassigned; enantiomer 1) [Example 196, (−) 4-(6-(2-hydroxyethoxy)-2-(4-methoxy-3-propoxyphenyl)pyrimidin-4-yl)-1,2-oxaborolan-2-ol, enantiomer 1] | 0.29 | 0.81 | 1540 | 0.34 |  |  |  |
| CCCOc1cc(-c2nc(CO)cc(C3COB(O)C3)n2)c(F)cc1OC (single isomer, unassigned; enantiomer 2) [Example 154, (−) 4-(2-(2-fluoro-4-methoxy-5-propoxyphenyl)-6-(hydroxymethyl)pyrimidin-4-yl)-1,2-oxaborolan-2-ol, enantiomer 2] | 31.4 | 15.2 | 893 | 14.1 |  |  |  |
| CCCOc1cc(-c2cccc(C3=C(C)B(O)OC3)n2)ccc1OC [Example 28, 4-(6-(4-methoxy-3-propoxyphenyl)pyridin-2-yl)-3-methyl-1,2-oxaborol-2(5H)-ol] | 1040 | 201 | 8010 | 10.8 |  |  |  |
| CCOc1cc(-c2cncc(C3COB(O)C3)c2)c(Cl)cc1OC (single isomer, unassigned) [Example 15, 4-(5-(2-chloro-5-ethoxy-4-methoxyphenyl)pyridin-3-yl)-1,2-oxaborolan-2-ol] | 1.41 | 0.71 | 136 | 1.57 |  |  |  |
| COc1ccc(-c2cncc(C3COB(O)C3)c2)cc1OC1CC1 (stereo not drawn) [Example 36, 4-(5-(3-cyclopropoxy-4-methoxyphenyl)pyridin-3-yl)-1,2-oxaborolan-2-ol] | 5.25 | 1.27 | 476 | 0.98 |  |  |  |
| CCCOc1cc(-c2cncc(C3(CO)COB(O)C3)c2)ccc1OC (stereo not drawn) [Example 31, 4-(hydroxymethyl)-4-(5-(4-methoxy-3-propoxyphenyl)pyridin-3-yl)-1,2-oxaborolan-2-ol] | 3.92 | 2.96 | 5730 | 4.2 |  |  |  |
| CCCOc1c(OC)ccc(-c2cccc(C3COB(O)C3)n2)c1F (stereo not drawn) [Example 213, 4-(6-(2-fluoro-4-methoxy-3-propoxyphenyl)pyridin-2-yl)-1,2-oxaborolan-2-ol] | 80.9 | 3.36 | 1980 | 6.32 |  |  |  |
| CCOc1cc(-c2cncc(C3COB(O)C3)n2)ccc1OC (stereo not drawn) [Example 56, 4-(6-(3-ethoxy-4-methoxyphenyl)pyrazin-2-yl)-1,2-oxaborolan-2-ol] | 68 | 3.62 | 446 | 2.81 |  |  |  |
| COc1ccc(-c2cncc(C3COB(O)C3)c2)cc1OC1CCCC1 (stereo not drawn) [Example 149, 4-(5-(3-(cyclopentyloxy)-4-methoxyphenyl)pyridin-3-yl)-1,2-oxaborolan-2-ol] | 20.2 | 0.87 | 793 | 0.49 |  |  |  |
| CCOc1cc(-c2cncc(C3COB(O)C3)c2)cc(F)c1OC (stereo not drawn) [Example 44, 4-(5-(3-ethoxy-5-fluoro-4-methoxyphenyl)pyridin-3-yl)-1,2-oxaborolan-2-ol] | 7.22 | 1.34 | 167 | 2.5 |  |  |  |
| COc1ccc(-c2cccc(C3COB(O)C3)c2)cc1OCC1CC1 (stereo not drawn) [Example 165, 4-(3′-(cyclopropylmethoxy)-4′-methoxy-[1,1′-biphenyl]-3-yl)-1,2-oxaborolan-2-ol] | 128 | 3.25 | 990 | 2.11 |  |  |  |
